# Experimental data from paper PMC9080489, “Synthesis and biological evaluation of 2-aryl-benzimidazole derivatives of dehydroabietic acid as novel tubulin polymerization inhibitors” (RSC Advances, 2018).
# What was measured:
# [1] = tested on: human breast cancer cell line (MDA-MB-231); assay: MTT cytotoxic assay, MDA-MB-231; type: cell-based; details: MDA-MB-231, MTT, 48 h exposure, read-out: IC50 MDA-MB-231
# Procedure: (§1) The in vitro antiproliferative activity of DAA derivatives (1–5, 6a–k, 7a–k) were evaluated by MTT assay against human hepatocarcinoma cell line (SMMC-7721), human breast cancer cell line (MDA-MB-231), human cervical carcinoma cell line (HeLa), mouse colon cancer cell line (CT-26) and human normal hepatocyte cell line (QSG-7701). Nocodazole was co-assayed as the positive control and DMEM culture medium containing 0.1% DMSO was used as negative control. The results of the tested compounds expressed as IC50 values (concentration required to inhibit tumor cell proliferation by 50%) were presented in Table 1.
# (§2) The human hepatocarcinoma cell line (SMMC-7721), human breast cancer cell line (MDA-MB-231), human cervical carcinoma cell line (HeLa), mouse colon cancer cell line (CT-26) and human normal hepatocyte cells (QSG-7701) used in this study were all obtained from Keygene Biotech., China. These cell lines were maintained in DMEM medium supplemented with 10% heat-inactivated fetal bovine serum in a humidified atmosphere of 5% CO2 at 37 °C.
# (§3) The in vitro cytotoxic activities of the benzimidazole derivatives of dehydroabietic acid were evaluated against tested cell lines via the MTT colorimetric method. Briefly, different tumor cells were grown in DMEM medium supplemented with 10% fetal bovine serum, penicillin (100 U mL^−1), and streptomycin (50 μg mL^−1). Cells were harvested at log phase of growth and seeded in 96-well plates (100 μL per well at a density of 2 × 10^5 cells mL^−1). After 24 h incubation at 37 °C and 5% CO2 to allow cell attachment, cultures were exposed to various concentrations of the isolated compounds for 48 h. Finally, MTT solution (2.5 mg mL^−1 in PBS) was added (40 μL per well). Plates were further incubated for 4 h at 37 °C, and the formazan crystals formed were dissolved by adding 150 μL per well of DMSO. Absorption at 570 nm was measured with an ELISA plate reader. The results were expressed as IC50 values with standard deviations, which was defined as the concentration at which 50% survival of cells was discerned. Nocodazole was co-assayed as positive control.
# [2] = tested on: human normal hepatocyte cell line (QSG-7701); assay: MTT cytotoxic assay, QSG-7701; type: cell-based; details: QSG7701, 48 h exposure
# Procedure: as §1, §2, §3
# SMMC-7721 cells [3] = assay: ROS generation assay (DCFH-DA); type: cell-based, human; details: 0.2, 0.5, 1 and 2 μM, 24 h
# Procedure: Reactive oxygen species (ROS) are highly harmful elements to cells as they exert oxidative stress and finally cause cellular damage. Excessive ROS generation renders cells vulnerable to apoptosis.[39] To determine whether compound 6j triggers ROS generation in SMMC-7721 cells to induce apoptosis, the cells were treated with different concentrations (0, 0.2, 0.5, 1 and 2 μM) of compound 6j for 24 h, and the ROS generation was evaluated using the fluorescent probe 2,7-dichlorofluorescein diacetate (DCF-DA) by fluorescence microscopy. […] This phenomenon implied that the increment of ROS might play an important role as an early mediator in compound 6j-induced apoptosis.
# ROS generation assay was performed by using the reactive oxygen species assay kit (Beyotime Biotech., China). Intracellular ROS generation was tested through dichlorodihydro fluorescein diacetate (DCFH-DA) assay. DCFH-DA is taken up by SMMC-7721 cells, and then activated by esterase-mediated cleavage of acetate to form dichlorodihydro fluorescein (DCFH), which is trapped in the cells. DCFH is converted to fluorescein DCF in the presence of ROS. SMMC-7721 cells were seeded in six-well plates and incubated with different concentrations of compound 6j for 24 h. […] Immediately after light exposure, cell images were acquired through an inverted fluorescence microscope (Olympus 1X71 Inverted System Microscope, Olympus, Japan).
# SMMC-7721 cells [4] = assay: Cell cycle analysis (PI staining, flow cytometry); type: cell-based, human; details: 24 h; for percentage of cells in G2/M phase: control 8.86%; for percentage of cells in S phase: control 25.21%; for percentage of cells in G0/G1 phase: control 65.93%
# Procedure: Flow cytometry was used to analyze the effects of the DAA derivative on cell growth and division. SMMC-7721 cells were treated with different concentrations of compound 6j (0, 0.1, 0.2 and 0.5 μM) for 24 h. Cell cycle distribution was investigated by flow cytometric analysis after staining the DNA of the treated cells with propidium iodide (PI).
# For the flow cytometric analysis of the DNA content, SMMC-7721 cells were seeded in 6-well plates (5 × 10^5 cells per well) and incubated in the absence or presence of compound 6j at indicated concentrations for 24 h. After treatment, cells were detached with 0.25% trypsin, harvested by centrifugation, washed twice with ice-cold PBS and then fixed and permeabilized with ice-cold ethanol at 4 °C overnight. Ethanol was removed by centrifugation, and the cells were washed twice and resuspended in ice-cold PBS. After this, the cells were treated with 100 μL of 100 μg mL^−1 RNAse A at 37 °C for 30 min, followed by incubation with 400 μL of 1 mg mL^−1 DNA staining solution propidium iodide (PI) in the dark at 4 °C for 30 min. The samples were then analyzed for their DNA content by flow cytometry (Becton-Dickinson FACSCalibur, New York, USA).
# [5] = tested on: human cervical carcinoma cell line (HeLa); assay: MTT cytotoxic assay, HeLa; type: cell-based; details: MTT, 48 h exposure, read-out: IC50 HeLa
# Procedure: as §1, §2, §3
compound,measurement,setting,value
"COC(=O)[C@]1(C)CCC[C@]2(C)c3cc(Br)c4nc(-c5ccc6[nH]ccc6c5)[nH]c4c3CCC12 (some centres unmarked) [Compound 6j, Methyl 2′-(1H-indol-5-yl)-12-bromo-13,14-imidazolyl-deisopropyl-dehydroabietate]",IC50,[1],190 ± 40 nM
same,melting point,,179 to 181 °C
same,IC50,[2],5820 ± 380 nM
same,ROS generation (DCF green fluorescence),SMMC-7721 cells [3],significantly induced ROS generation
same,percentage of cells in G2/M phase,SMMC-7721 cells [4]; 0.1 μM,13.65%
same,percentage of cells in S phase,SMMC-7721 cells [4]; 0.1 μM,29.52%
same,percentage of cells in G0/G1 phase,SMMC-7721 cells [4]; 0.1 μM,56.83%
same,percentage of cells in G2/M phase,SMMC-7721 cells [4]; 0.2 μM,18.37%
same,percentage of cells in S phase,SMMC-7721 cells [4]; 0.2 μM,29.34%
same,percentage of cells in G0/G1 phase,SMMC-7721 cells [4]; 0.2 μM,52.28%
same,percentage of cells in G2/M phase,SMMC-7721 cells [4]; 0.5 μM,26.42%
same,percentage of cells in S phase,SMMC-7721 cells [4]; 0.5 μM,24.27%
same,percentage of cells in G0/G1 phase,SMMC-7721 cells [4]; 0.5 μM,49.30%
same,IC50,[5],230 ± 50 nM
